Assays:
[1] = tested on: Human immunodeficiency virus 1; assay: Inhibition of HIV-1 (BRU) cytopathicity in MT-4 (human leukemia).; format: functional, organism-based
[2] = (§1) Cytotoxicity against human peripheral blood mononuclear cells.; format: functional
[3] = tested on: Human immunodeficiency virus 1; assay: Inhibition of HIV-1 (IIIB) cytopathicity in human peripheral blood mononuclear cells.; format: functional, organism-based
[4] = tested on: Human immunodeficiency virus 1; assay: Inhibition of HIV-1 (BaL) cytopathicity in human peripheral blood mononuclear cells.; format: functional, organism-based
[5] = as §1; format: functional; remark: listed apart in the source
MT4 = assay: Cytotoxicity against MT-4 (human leukemia) cells.; format: functional
Homo sapiens = species on record: Homo sapiens; assay: Time required for 50%hydrolysis of prodrug to AZT in normal human serum was determined; format: ADME, organism-based
[6] = Selectivity index (CC50/EC50).; format: functional
[7] = Partition coefficient (logP); format: physicochemical; settings: octanol/water

Structure (SMILES): Cc1cn([C@H]2C[C@H](N=[N+]=[N-])[C@@H](CO)O2)c(=O)[nH]c1=O [ZIDOVUDINE]
- EC50 [1]: 25 nM
- CC50 [2]: 11 µM
- EC50 [3]: 7.5 nM
- EC50 [4]: 11 nM
- CC50 [5]: 8 µM
- CC50 (MT4): > 100 µM

Structure (SMILES): Cc1cn(C2CC(N=[N+]=[N-])C(COC(=O)OCCCCCCCCO)O2)c(=O)[nH]c1=O (stereo not given)
- T1/2 (Homo sapiens): 2 min
- EC50 [1]: 2.5 nM
- SI [6]: > 20000
- logP ([7]; read-out: logP): 1.14
- CC50 (MT4): > 50 µM

Structure (SMILES): Cc1cn(C2CC(N=[N+]=[N-])C(COC(=O)OCCCCO)O2)c(=O)[nH]c1=O (stereo not given)
- T1/2 (Homo sapiens): 30 min
- EC50 [1]: 0.5 nM
- CC50 [2]: 24 µM
- EC50 [3]: 0.78 nM
- EC50 [4]: 0.78 nM
- CC50 [5]: 29 µM
- logP [7]: -0.68
- CC50 (MT4): > 50 µM

Structure (SMILES): Cc1cn(C2CC(N=[N+]=[N-])C(COC(=O)NCCCN)O2)c(=O)[nH]c1=O (stereo not given)
- T1/2 (Homo sapiens): > 2880 min
- EC50 [1]: 10 nM
- SI [6]: > 5000
- logP ([7]; read-out: logP): -1.19
- CC50 (MT4): > 50 µM

Structure (SMILES): Cc1cn(C2CC(N=[N+]=[N-])C(COC(=O)OCCCCCO)O2)c(=O)[nH]c1=O (stereo not given)
- T1/2 (Homo sapiens): 16 min
- EC50 [1]: 10 nM
- SI [6]: > 5000
- logP ([7]; read-out: logP): -0.45
- CC50 (MT4): > 50 µM

Structure (SMILES): Cc1cn(C2CC(N=[N+]=[N-])C(COC(=O)OCCCC(=O)O)O2)c(=O)[nH]c1=O (stereo not given)
- T1/2 (Homo sapiens): 780 min
- EC50 [1]: 5 nM
- SI [6]: > 10000
- logP ([7]; read-out: logP): -0.55
- CC50 (MT4): > 50 µM

Structure (SMILES): Cc1cn(C2CC(N=[N+]=[N-])C(COC(=O)NCCCC(=O)OC(C)(C)C)O2)c(=O)[nH]c1=O (stereo not given)
- T1/2 (Homo sapiens): > 2880 min
- EC50 [1]: 10 nM
- SI [6]: > 5000
- logP ([7]; read-out: logP): 0.88
- CC50 (MT4): > 50 µM

Structure (SMILES): Cc1cn(C2CC(N=[N+]=[N-])C(COC(=O)CCCC(=O)OC(C)(C)C)O2)c(=O)[nH]c1=O (stereo not given)
- T1/2 (Homo sapiens): 33 min
- EC50 [1]: 5 nM
- SI [6]: > 10000
- logP ([7]; read-out: logP): 1.17
- CC50 (MT4): > 50 µM

Structure (SMILES): Cc1cn(C2CC(N=[N+]=[N-])C(COC(=O)OCCCO)O2)c(=O)[nH]c1=O (stereo not given)
- T1/2 (Homo sapiens): 10 min
- EC50 [1]: 10 nM
- SI [6]: > 5000
- logP [7]: -0.98
- CC50 (MT4): > 50 µM

Structure (SMILES): Cc1cn(C2CC(N=[N+]=[N-])C(COC(=O)NCCCO)O2)c(=O)[nH]c1=O (stereo not given)
- T1/2 (Homo sapiens): > 2880 min
- EC50 [1]: 100 nM
- SI [6]: > 500
- logP ([7]; read-out: logP): -1.24
- CC50 (MT4): > 50 µM

Structure (SMILES): Cc1cn(C2CC(N=[N+]=[N-])C(COC(=O)OCCCCCCO)O2)c(=O)[nH]c1=O (stereo not given)
- T1/2 (Homo sapiens): 7 min
- EC50 [1]: 10 nM
- SI [6]: > 5000
- logP ([7]; read-out: logP): 0.08
- CC50 (MT4): > 50 µM

Structure (SMILES): Cc1cn(C2CC(N=[N+]=[N-])C(COC(=O)OCCCC(=O)OC(C)(C)C)O2)c(=O)[nH]c1=O (stereo not given)
- T1/2 (Homo sapiens): 16 min
- EC50 [1]: 5 nM
- SI [6]: > 10000
- logP ([7]; read-out: logP): 1.14
- CC50 (MT4): > 50 µM

Structure (SMILES): Cc1cn(C2CC(N=[N+]=[N-])C(COC(=O)NCCCC(=O)O)O2)c(=O)[nH]c1=O (stereo not given)
- T1/2 (Homo sapiens): > 2880 min
- EC50 [1]: 100 nM
- SI [6]: > 500
- logP ([7]; read-out: logP): -0.81
- CC50 (MT4): > 50 µM

Structure (SMILES): CCCCOC(=O)OCC1OC(n2cc(C)c(=O)[nH]c2=O)CC1N=[N+]=[N-] (stereo not given)
- T1/2 (Homo sapiens): 9 min
- EC50 [1]: 8 nM
- SI [6]: > 6250
- logP ([7]; read-out: logP): 1.02
- CC50 (MT4): > 50 µM

Structure (SMILES): Cc1cn(C2CC(N=[N+]=[N-])C(COC(=O)OCCCN)O2)c(=O)[nH]c1=O (stereo not given)
- T1/2 (Homo sapiens): 8 min
- EC50 [1]: 20 nM
- SI [6]: > 2500
- logP ([7]; read-out: logP): -0.93
- CC50 (MT4): > 50 µM

Structure (SMILES): Cc1cn(C2CC(N=[N+]=[N-])C(COC(=O)OCCO)O2)c(=O)[nH]c1=O (stereo not given)
- T1/2 (Homo sapiens): < 1 min
- EC50 [1]: 10 nM
- SI [6]: > 5000
- logP [7]: -1.2
- CC50 (MT4): > 50 µM

Structure (SMILES): Cc1cn(C2CC(N=[N+]=[N-])C(COC(=O)CCCC(=O)O)O2)c(=O)[nH]c1=O (stereo not given)
- T1/2 (Homo sapiens): 1800 min
- EC50 [1]: 7 nM
- SI [6]: > 7140
- logP [7]: -0.52
- CC50 (MT4): > 50 µM

Structure (SMILES): Cc1cn(C2CC(N=[N+]=[N-])C(COC(=O)CCCN)O2)c(=O)[nH]c1=O (stereo not given)
- T1/2 (Homo sapiens): 26 min
- EC50 [1]: 20 nM
- SI [6]: > 2500
- logP ([7]; read-out: logP): -0.9
- CC50 (MT4): > 50 µM

Structure (SMILES): Cc1cn(C2CC(N=[N+]=[N-])C(COC(=O)CCCO)O2)c(=O)[nH]c1=O (stereo not given)
- logP ([7]; read-out: logP): -0.95

— ChEMBL document CHEMBL1134362, “New 3'-azido-3'-deoxythymidin-5'-yl O-(omega-hydroxyalkyl) carbonate prodrugs: synthesis and anti-HIV evaluation” (J Med Chem, 2001)
